The molecules below were run on beta-TC6 cells (assay: Insulin HTRF assay (relative activity Ar) in beta-TC6 cells). Conditions: Mus musculus, Beta-TC6, 4 h, insulin HTRF, supernatant of beta-TC6 cells, incubation with test compound at 37°C for 2, 3, 4h; read-out: Ar (relative activity).
Assay type: cell-based, mouse
How it was run: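 beta-TC6 cells (15k/well, seeded 24 or 48 h) washed, then exposed to compound in induction buffer (0.5% DMSO final) for 2, 3 or 4 h at 37°C.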
`COCCNc1nc2cnc(-c3ccccc3C)cc2n1C` [Compound 770, N-(2-methoxyethyl)-1-methyl-6-(o-tolyl)imidazo[4,5-c]pyridin-2-amine] gave an Emax of 0 to 30%.
`CNc1nc2cnc(-c3cccc(C(=O)NCCN(C)C)c3)cc2n1-c1cccc(F)c1` [Compound 771, N-(2-dimethylaminoethyl)-3-[1-(3-fluorophenyl)-2-(methylamino)imidazo[4,5-c]pyridin-6-yl]benzamide] was tested, and the Emax was 0 to 30%.
With `CNc1nc2cnc(Nc3cccc(C(C)C)c3)cc2n1CCOC` [Compound 772, N6-(3-isopropylphenyl)-1-(2-methoxyethyl)-N2-methyl-imidazo[4,5-c]pyridine-2,6-diamine] the Emax was 0 to 30%.
`CNc1nc2cnc(Nc3ccc(OC(F)(F)F)cc3)cc2n1CCOC` [Compound 773, 1-(2-methoxyethyl)-N2-methyl-N6-[4-(trifluoromethoxy)phenyl]imidazo[4,5-c]pyridine-2,6-diamine] gave an Emax of 0 to 30%.
With `Cc1ccc(-c2nc3ccncc3[nH]2)cc1` [Compound 774, 2-(p-tolyl)-3H-imidazo[4,5-c]pyridine] the Emax was 0 to 30%.
`Fc1ccc(-c2nc3ccncc3[nH]2)cc1` [Compound 775, 2-(4-fluorophenyl)-3H-imidazo[4,5-c]pyridine] gave an Emax of 0 to 30%.
Work on `Cn1nc(C(C)(C)C)cc1Nc1cc2c(cn1)ncn2Cc1ccco1` [Compound 776, N-(5-tert-butyl-2-methyl-pyrazol-3-yl)-1-(2-furylmethyl)imidazo[4,5-c]pyridin-6-amine] yielded an Emax of 0 to 30%.
In the case of `CNc1nc2cnc(Nc3cc(C(F)(F)F)ccc3F)cc2n1Cc1ccco1` [Compound 777, N6-[2-fluoro-5-(trifluoromethyl)phenyl]-1-(2-furylmethyl)-N2-methyl-imidazo[4,5-c]pyridine-2,6-diamine], the Emax is reported as 0 to 30%.
`Cn1c(-c2ccc3ccccc3n2)nc2cnccc21` [Compound 778, 2-(1-methylimidazo[4,5-c]pyridin-2-yl)quinoline] showed an Emax of 0 to 30%.
`CNc1nc2cnc(-c3ccccc3OC)cc2n1-c1ccccc1` [Compound 782, 6-(2-methoxyphenyl)-N-methyl-1-phenyl-imidazo[4,5-c]pyridin-2-amine] gave an Emax of 0 to 30%.
`CNc1nc2cnc(-c3cccc(N(C)C)c3)cc2n1-c1ccccc1` [Compound 783, 6-[3-(dimethylamino)phenyl]-N-methyl-1-phenyl-imidazo[4,5-c]pyridin-2-amine] showed an Emax of 0 to 30%.
Work on `CNc1nc2cnc(-c3ccc(F)c(Cl)c3)cc2n1-c1ccccc1` [Compound 784, 6-(3-chloro-4-fluoro-phenyl)-N-methyl-1-phenyl-imidazo[4,5-c]pyridin-2-amine] yielded an Emax of 0 to 30%.
`CNc1nc2cnc(-c3ccc(C(N)=O)cc3)cc2n1-c1ccccc1` [Compound 786, 4-[2-(methylamino)-1-phenyl-imidazo[4,5-c]pyridin-6-yl]benzamide] was tested, and the Emax was 0 to 30%.
`CNc1nc2cnc(-c3cccnc3OC)cc2n1-c1ccccc1` [Compound 788, 6-(2-methoxy-3-pyridyl)-N-methyl-1-phenyl-imidazo[4,5-c]pyridin-2-amine] gave an Emax of 30 to 50%.
For `CNc1nc2cnc(-c3ccc4c(c3)OCO4)cc2n1Cc1ccccc1` [Compound 791, 6-(1,3-benzodioxol-5-yl)-1-benzyl-N-methyl-imidazo[4,5-c]pyridin-2-amine], the Emax was 0 to 30%.
With `CNc1nc2cnc(-c3ccc(Cl)cc3)cc2n1Cc1ccccc1` [Compound 792, 1-benzyl-6-(4-chlorophenyl)-N-methyl-imidazo[4,5-c]pyridin-2-amine] the Emax was 30 to 50%.
`CNc1nc2cnc(-c3cccc(C(=O)NCCN(C)C)c3)cc2n1Cc1ccccc1` [Compound 793, 3-[1-benzyl-2-(methylamino)imidazo[4,5-c]pyridin-6-yl]-N-(2-dimethylaminoethyl)benzamide] showed an Emax of 0 to 30%.
For `CNc1nc2cnc(-c3cccc(C(=O)NCCO)c3)cc2n1Cc1ccccc1` [Compound 794, 3-[1-benzyl-2-(methylamino)imidazo[4,5-c]pyridin-6-yl]-N-(2-hydroxyethyl)benzamide], the Emax was 0 to 30%.
With `CNc1nc2cnc(-c3ccc(O)c(OC)c3)cc2n1Cc1ccccc1` [Compound 797, 4-[1-benzyl-2-(methylamino)imidazo[4,5-c]pyridin-6-yl]-2-methoxy-phenol] the Emax was 30 to 50%.
For `CNc1nc2cnc(-c3ccoc3)cc2n1Cc1ccccc1` [Compound 798, 1-benzyl-6-(3-furyl)-N-methyl-imidazo[4,5-c]pyridin-2-amine], the Emax was 30 to 50%.
`CNc1nc2cnc(-c3ccc(NC(C)=O)cc3)cc2n1Cc1ccccc1` [Compound 799, N-[4-[1-benzyl-2-(methylamino)imidazo[4,5-c]pyridin-6-yl]phenyl]acetamide] gave an Emax of 0 to 30%.
`Cc1cccc(CNc2nc3cnc(-c4ccc(N(C)C)cc4)cc3n2C)c1` [Compound 802, 6-(4-dimethylaminophenyl)-1-methyl-N-(m-tolylmethyl)imidazo[4,5-c]pyridin-2-amine] showed an Emax of 50 to 100%.
`Cc1cccc(CNc2nc3cnc(-c4ccc(S(C)(=O)=O)cc4)cc3n2C)c1` [Compound 806, 1-methyl-6-(4-methylsulfonylphenyl)-N-(m-tolylmethyl)imidazo[4,5-c]pyridin-2-amine] gave an Emax of 30 to 50%.
In the case of `COc1ccc(-c2cc3c(cn2)nc(NCc2cccc(C)c2)n3C)cc1` [Compound 807, 6-(4-methoxyphenyl)-1-methyl-N-(m-tolylmethyl)imidazo[4,5-c]pyridin-2-amine], the Emax is reported as 30 to 50%.
`COc1cc(-c2cc3c(cn2)nc(NCc2cccc(C)c2)n3C)ccc1O` [Compound 808, 2-methoxy-4-[1-methyl-2-(m-tolylmethylamino)imidazo[4,5-c]pyridin-6-yl]phenol] showed an Emax of 30 to 50%.
`Cc1cccc(CNc2nc3cnc(-c4ccc(N)nc4)cc3n2C)c1` [Compound 811, 6-(6-amino-3-pyridyl)-1-methyl-N-(m-tolylmethyl)imidazo[4,5-c]pyridin-2-amine] gave an Emax of 30 to 50%.
For `COc1cc(Nc2nc3cnc(-c4cccc(F)c4)cc3n2C)cc(OC)c1OC` [Compound 814, 6-(3-fluorophenyl)-1-methyl-N-(3,4,5-trimethoxyphenyl)imidazo[4,5-c]pyridin-2-amine], the Emax was 0 to 30%.
With `COc1ccc(OC)c(CCNc2nc3cnc(-c4ccc5c(c4)OCO5)cc3n2C)c1` [Compound 816, 6-(1,3-benzodioxol-5-yl)-N-[2-(2,5-dimethoxyphenyl)ethyl]-1-methyl-imidazo[4,5-c]pyridin-2-amine] the Emax was 0 to 30%.
In the case of `COc1ccc(OC)c(CCNc2nc3cnc(-c4cccc(O)c4)cc3n2C)c1` [Compound 820, 3-[2-[2-(2,5-dimethoxyphenyl)ethylamino]-1-methyl-imidazo[4,5-c]pyridin-6-yl]phenol], the Emax is reported as 30 to 50%.
Molecule `COc1ccc(OC)c(CCNc2nc3cnc(-c4cccc(C(N)=O)c4)cc3n2C)c1` [Compound 822, 3-[2-[2-(2,5-dimethoxyphenyl)ethylamino]-1-methyl-imidazo[4,5-c]pyridin-6-yl]benzamide] has an Emax of 0 to 30%.
`COc1cccc(-c2cc3c(cn2)nc(NCCc2cc(OC)ccc2OC)n3C)c1` [Compound 823, N-[2-(2,5-dimethoxyphenyl)ethyl]-6-(3-methoxyphenyl)-1-methyl-imidazo[4,5-c]pyridin-2-amine] gave an Emax of 30 to 50%.
`COc1ccc(OC)c(CCNc2nc3cnc(-c4cccc(NS(C)(=O)=O)c4)cc3n2C)c1` [Compound 825, N-[3-[2-[2-(2,5-dimethoxyphenyl)ethylamino]-1-methyl-imidazo[4,5-c]pyridin-6-yl]phenyl]methanesulfonamide] showed an Emax of 0 to 30%.
`Cn1c(NCC2CC2)nc2cnc(-c3ccccc3)cc21` [Compound 826, N-(cyclopropylmethyl)-1-methyl-6-phenyl-imidazo[4,5-c]pyridin-2-amine] was tested, and the Emax was 30 to 50%.
With `CN(C)c1cccc(-c2cc3c(cn2)nc(NCC2CC2)n3C)c1` [Compound 828, N-(cyclopropylmethyl)-6-[3-(dimethylamino)phenyl]-1-methyl-imidazo[4,5-c]pyridin-2-amine] the Emax was 30 to 50%.
With `CNc1nc2cnc(-c3ccc(CO)cc3)cc2n1C` [Compound 830, [4-[1-methyl-2-(methylamino)imidazo[4,5-c]pyridin-6-yl]phenyl]methanol] the Emax was 30 to 50%.
Work on `CNc1nc2cnc(-c3cccc(C(F)(F)F)c3)cc2n1C` [Compound 831, N,1-dimethyl-6-[3-(trifluoromethyl)phenyl]imidazo[4,5-c]pyridin-2-amine] yielded an Emax of 0 to 30%.
`Cn1c(NCc2ccccc2)nc2cnc(-c3ccccc3)cc21` [Compound 836, N-benzyl-1-methyl-6-phenyl-imidazo[4,5-c]pyridin-2-amine] showed an Emax of 30 to 50%.
For `COc1ccc(-c2cc3c(cn2)nc(NCc2ccccc2)n3C)cc1` [Compound 839, N-benzyl-6-(4-methoxyphenyl)-1-methyl-imidazo[4,5-c]pyridin-2-amine], the Emax was 30 to 50%.
`Cn1c(NCc2ccccc2)nc2cnc(-c3cccs3)cc21` [Compound 841, N-benzyl-1-methyl-6-(2-thienyl)imidazo[4,5-c]pyridin-2-amine] was tested, and the Emax was 30 to 50%.
`COc1ccc(-c2cc3c(cn2)nc(Nc2ccccc2)n3C)cc1` [Compound 847, 6-(4-methoxyphenyl)-1-methyl-N-phenyl-imidazo[4,5-c]pyridin-2-amine] was tested, and the Emax was 30 to 50%.
`Cn1c(NCC2CCCO2)nc2cnc(-c3ccc4ccccc4c3)cc21` (centres unmarked) [Compound 850, 1-methyl-6-(2-naphthyl)-N-(tetrahydrofuran-2-ylmethyl)imidazo[4,5-c]pyridin-2-amine] was tested, and the Emax was 30 to 50%.
`Cn1c(NCC2CCCO2)nc2cnc(-c3cccc(Oc4ccccc4)c3)cc21` (centres unmarked) [Compound 851, 1-methyl-6-(3-phenoxyphenyl)-N-(tetrahydrofuran-2-ylmethyl)imidazo[4,5-c]pyridin-2-amine] was tested, and the Emax was 30 to 50%.

Same assay, conditions: insulin HTRF, supernatant of beta-TC6 cells, incubation with test compound at 37°C for 2, 3, 4h
For `CNc1nc2cnc(-c3ccc(N(C)C)cc3)cc2n1-c1ccccc1` [Compound 781, 6-(4-dimethylaminophenyl)-N-methyl-1-phenyl-imidazo[4,5-c]pyridin-2-amine], the “Ar (relative activity)” value was “+++ (50 % ≤ Ar < 100 %)”.
In the case of `CNc1nc2cnc(-c3ccc(CO)cc3)cc2n1-c1ccccc1` [Compound 785, [4-[2-(methylamino)-1-phenyl-imidazo[4,5-c]pyridin-6-yl]phenyl]methanol], the “Ar (relative activity)” value is reported as “+ (0 % < Ar < 30 %)”.
